Source: US8299048B2, “Hexahydrocyclopentyl[f]indazole sulfonamides and derivatives thereof as selective glucocorticoid receptor modulators” (Merck Sharp & Dohme Corp., priority 2008, dated 2012)

Biological target: T1, human GR (Homo sapiens, UniProt P04150)
T1 sequence (P04150 1-777): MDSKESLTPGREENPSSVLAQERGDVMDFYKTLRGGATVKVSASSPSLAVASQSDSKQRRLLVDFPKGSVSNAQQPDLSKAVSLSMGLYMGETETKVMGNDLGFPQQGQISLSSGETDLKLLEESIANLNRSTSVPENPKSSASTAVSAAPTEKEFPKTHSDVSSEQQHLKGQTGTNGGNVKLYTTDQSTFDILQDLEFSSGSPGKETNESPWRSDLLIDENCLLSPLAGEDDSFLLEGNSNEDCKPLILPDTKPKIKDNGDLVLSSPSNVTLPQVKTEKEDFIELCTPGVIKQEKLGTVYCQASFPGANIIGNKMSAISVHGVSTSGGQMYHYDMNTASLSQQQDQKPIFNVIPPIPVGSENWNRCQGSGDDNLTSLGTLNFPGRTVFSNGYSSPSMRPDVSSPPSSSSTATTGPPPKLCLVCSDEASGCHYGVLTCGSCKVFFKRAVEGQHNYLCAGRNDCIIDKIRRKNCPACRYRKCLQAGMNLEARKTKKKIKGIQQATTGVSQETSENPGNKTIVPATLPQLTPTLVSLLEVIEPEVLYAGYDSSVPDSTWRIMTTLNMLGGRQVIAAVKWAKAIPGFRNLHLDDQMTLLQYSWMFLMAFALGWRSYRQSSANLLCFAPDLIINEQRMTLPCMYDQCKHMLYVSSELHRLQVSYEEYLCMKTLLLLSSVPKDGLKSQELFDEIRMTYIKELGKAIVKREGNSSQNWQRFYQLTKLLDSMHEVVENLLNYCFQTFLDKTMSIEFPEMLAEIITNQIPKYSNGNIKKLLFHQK
Experiment: Trans-Activation Modulation of Glucocorticoid Receptor (GRAMMER), MMTV-LUC reporter, agonist mode
Assay type: cell-based
Design: endogenous in cells
Details: for Emax: A549, A549 cells, read-out: Transactivation A549 Cells GRAMMER Emax; for EC50: inflection point, read-out: Transactivation A549 Cells GRAMMER IP
Method in brief: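 Readout is luciferase from a modified MMTV LTR promoter after 24 h compound exposure alongside 10 nM dexamethasone (100% activity reference), DMSO ≤1%.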

Row | SMILES | Emax (maximum activity) [%] | EC50 (A549 cells) [nM] | Transactivation A549 Cells GRAMMER Emax (A549 cells, maximum activity) [%]
1 | C[C@]12Cc3cnn(-c4ccc(F)cc4)c3C=C1CC[C@@H]2CN(CCO)S(=O)(=O)c1cc(C(F)(F)F)ccc1Cl [Example 80, 2-chloro-N-{[(4αR,5S)-1-(4-fluorophenyl)-4α-methyl-1,4,4α,5,6,7-hexahydrocyclopenta[f]indazol-5-yl]methyl}-N-(2-hydroxyethyl)-5-(trifluoromethyl)benzenesulfonamide] | 6 | 1140 | –
2 | Cc1ccccc1S(=O)(=O)N(CCO)C[C@H]1CCC2=Cc3c(cnn3-c3ccc(F)cc3)C[C@@]21C [Example 77, N-{[(4αR,5S)-1-(4-fluorophenyl)-4α-methyl-1,4,4α,5,6,7-hexahydrocyclopenta[f]indazol-5-yl]methyl}-N-(2-hydroxyethyl)-2-methylbenzenesulfonamide] | 17.9 | 901 | –
3 | Cc1ccc(S(=O)(=O)N(CCO)C[C@H]2CCC3=Cc4c(cnn4-c4ccc(F)cc4)C[C@@]32C)s1 [Example 64, N-{[(4αR,5S)-1-(4-fluorophenyl)-4α-methyl-1,4,4α,5,6,7-hexahydrocyclopenta[f]indazol-5-yl]methyl}-N-(2-hydroxyethyl)-5-methylthiophene-2-sulfonamide] | 7.9 | 622 | –
4 | CNC(=O)Nc1ccc(S(=O)(=O)N(CCO)C[C@H]2CCC3=Cc4c(cnn4-c4ccc(F)cc4)C[C@@]32C)c(Cl)c1 [Example 76, 2-chloro-N-{[(4αR,5S)-1-(4-fluorophenyl)-4α-methyl-1,4,4α,5,6,7-hexahydrocyclopenta[f]indazol-5-yl]methyl}-N-(2-hydroxyethyl)-4-{[(methylamino)carbonyl]amino}-benzenesulfonamide] | 3.5 | 1960 | –
5 | Cc1nn(C)c(Cl)c1S(=O)(=O)N(CCO)C[C@H]1CCC2=Cc3c(cnn3-c3ccc(F)cc3)C[C@@]21C [Example 83, 5-chloro-N-{[(4αR,5S)-1-(4-fluorophenyl)-4α-methyl-1,4,4α,5,6,7-hexahydrocyclopenta[f]indazol-5-yl]methyl}-N-(2-hydroxyethyl)-1,3-dimethyl-1H-pyrazole-4-sulfonamide] | 6.9 | 568 | –
6 | CCCS(=O)(=O)N(CCc1ccccc1F)C[C@H]1CCC2=Cc3c(cnn3-c3ccc(F)cc3)C[C@@]21C [Example 87, N-[2-(2-fluorophenyl)ethyl]-N-{[(4αR,5S)-1-(4-fluorophenyl)-4α-methyl-1,4,4α,5,6,7-hexahydrocyclopenta[f]indazol-5-yl]methyl}propane-1-sulfonamide] | 65.1 | 231 | –
7 | C[C@]12Cc3cnn(-c4ccc(F)cc4)c3C=C1CC[C@@H]2CN(CCc1ccccc1F)S(=O)(=O)Cc1cccc(C(F)(F)F)c1 [Example 88, N-[2-(2-fluorophenyl)ethyl]-N-{[(4αR,5S)-1-(4-fluorophenyl)-4α-methyl-1,4,4α,5,6,7-hexahydrocyclopenta[f]indazol-5-yl]methyl}-1-[3-(trifluoromethyl)phenyl]methanesulfonamide] | 25.3 | 618 | –
8 | Cn1nc(C(F)(F)F)cc1-c1ccc(S(=O)(=O)N(CCO)C[C@H]2CCC3=Cc4c(cnn4-c4ccc(F)cc4)C[C@@]32C)s1 [Example 67, N-{[(4αR,5S)-1-(4-fluorophenyl)-4α-methyl-1,4,4α,5,6,7-hexahydrocyclopenta[f]indazol-5-yl]methyl}-N-(2-hydroxyethyl)-5-[1-methyl-3-(trifluoromethyl)-1H-pyrazole-5-yl]thiophene-2-sulfonamide] | 6.5 | 450 | –
9 | C[C@]12Cc3cnn(-c4ccc(F)cc4)c3C=C1CC[C@@H]2CN(CCc1ccccc1Cl)S(=O)(=O)c1ccccc1F [Example 92, N-[2-(2-chlorophenyl)ethyl]-2-fluoro-N-{[(4αR,5S)-1-(4-fluorophenyl)-4α-methyl-1,4,4α,5,6,7-hexahydrocyclopenta[f]indazol-5-yl]methyl}benzenesulfonamide] | 41.6 | 504 | –
10 | COCCN(C[C@H]1CCC2=Cc3c(cnn3-c3ccc(F)cc3)C[C@@]21C)S(=O)(=O)c1ccccc1F [Example 94, 2-fluoro-N-{[(4αR,5S)-1-(4-fluorophenyl)-4α-methyl-1,4,4α,5,6,7-hexahydrocyclopenta[f]indazol-5-yl]methyl}-N-(2-methoxyethyl)benzenesulfonamide] | 43.9 | 423 | –
11 | Cc1ccc(CCN(C[C@H]2CCC3=Cc4c(cnn4-c4ccc(F)cc4)C[C@@]32C)S(=O)(=O)c2ccccc2F)cc1 [Example 91, 2-fluoro-N-{[(4αR,5S)-1-(4-fluorophenyl)-4α-methyl-1,4,4α,5,6,7-hexahydrocyclopenta[f]indazol-5-yl]methyl}-N-[2-(4-methylphenyl)ethyl]benzenesulfonamide] | 10.7 | 643 | –
12 | C[C@]12Cc3cnn(-c4ccc(F)cc4)c3C=C1CC[C@@H]2CN(CCO)S(=O)(=O)Cc1ccccc1 [Example 75, N-{[(4αR,5S)-1-(4-fluorophenyl)-4α-methyl-1,4,4α,5,6,7-hexahydrocyclopenta[f]indazol-5-yl]methyl}-N-(2-hydroxyethyl)-1-phenylmethanesulfonamide] | 14.4 | 450 | –
13 | C[C@]12Cc3cnn(-c4ccc(F)cc4)c3C=C1CC[C@@H]2CN(CCO)S(=O)(=O)c1cc(F)cc(F)c1 [Example 72] | 35.3 | 475 | –
14 | C[C@]12Cc3cnn(-c4ccc(F)cc4)c3C=C1CC[C@@H]2CN(CC1CC1)S(=O)(=O)c1ccccc1F [Example 2, N-(cyclopropylmethyl)-2-fluoro-N-{[(4αR,5S)-1-(4-fluorophenyl)-4α-methyl-1,4,4α,5,6,7-hexahydrocyclopenta[f]indazol-5-yl]methyl}benzenesulfonamide] | 50.5 | 218 | –
15 | COC(=O)c1ccccc1S(=O)(=O)N(CCO)C[C@H]1CCC2=Cc3c(cnn3-c3ccc(F)cc3)C[C@@]21C [Example 73, methyl 2-{[{[(4αR,5S)-1-(4-fluorophenyl)-4α-methyl-1,4,4α,5,6,7-hexahydrocyclopenta[f]indazol-5-yl]methyl}(2-hydroxyethyl)amino]sulfonyl}benzoate] | 25.4 | 364 | –
16 | C[C@]12Cc3cnn(-c4ccc(F)cc4)c3C=C1CC[C@@H]2CN(CCc1ccccn1)S(=O)(=O)Cc1cccnc1 [Example 1, N-{[(4αR,5S)-1-(4-Fluorophenyl)-4α-methyl-1,4,4α,5,6,7-hexahydrocyclopenta[f]indazol-5-yl]methyl}-1-pyridin-3-yl-N-(2-pyridin-2-ylethyl)methanesulfonamide] | – | 351 | 31.6
17 | C[C@]12Cc3cnn(-c4ccc(F)cc4)c3C=C1CC[C@@H]2CN(CC1CC1)S(=O)(=O)c1ccccc1C(F)(F)F [Example 4, N-(cyclopropylmethyl)-N-{[(4αR,5S)-1-(4-fluorophenyl)-4α-methyl-1,4,4α,5,6,7-hexahydrocyclopenta[f]indazol-5-yl]methyl}-2-(trifluoromethyl)benzenesulfonamide] | 16.9 | 294 | –
18 | CC(=O)Nc1ccc(S(=O)(=O)N(CCO)C[C@H]2CCC3=Cc4c(cnn4-c4ccc(F)cc4)C[C@@]32C)cc1 [Example 85, N-(4-{[{[(4αR,5S)-1-(4-fluorophenyl)-4α-methyl-1,4,4α,5,6,7-hexahydrocyclopenta[f]indazol-5-yl]methyl}(2-hydroxyethyl)amino]sulfonyl}phenyl)acetamide] | 1.6 | 73.7 | –
19 | Cc1cc(S(=O)(=O)N(CCO)C[C@H]2CCC3=Cc4c(cnn4-c4ccc(F)cc4)C[C@@]32C)c(C)o1 [Example 66, N-{[(4αR,5S)-1-(4-fluorophenyl)-4α-methyl-1,4,4α,5,6,7-hexahydrocyclopenta[f]indazol-5-yl]methyl}-N-(2-hydroxyethyl)-2,5-dimethylfuran-3-sulfonamide] | 5.3 | 1180 | –
20 | CC(C1CCC2=Cc3c(cnn3-c3ccc(F)cc3)C[C@@]21C)N(CCc1ccccc1F)S(=O)(=O)CC(F)(F)F (stereo partly drawn) [Example 93, 2,2,2-trifluoro-N-[2-(2-fluorophenyl)ethyl]-N-{1-[(4αR)-1-(4-fluorophenyl)-4α-methyl-1,4,4α,5,6,7-hexahydrocyclopenta[f]indazol-5-yl]ethyl}ethanesulfonamide] | 50.9 | 296 | –
21 | C[C@]12Cc3cnn(-c4ccc(F)cc4)c3C=C1CC[C@@H]2CN(CCO)S(=O)(=O)c1ccc(Oc2ccccn2)cc1 [Example 74, N-{[(4αR,5S)-1-(4-fluorophenyl)-4α-methyl-1,4,4α,5,6,7-hexahydrocyclopenta[f]indazol-5-yl]methyl}-N-(2-hydroxyethyl)-4-(pyridin-2-yloxy)benzenesulfonamide] | 34.1 | 1030 | –
